AC50 data for 20 molecules are collected here from ChEMBL document CHEMBL5291721, “A preclinical secondary pharmacology resource illuminates target-adverse drug reaction associations of marketed drugs” (Nat Commun, 2023).

The target of test [1] is T1, 5-hydroxytryptamine receptor 2C (Homo sapiens, UniProt P28335).
T1 sequence (P28335 whole entry): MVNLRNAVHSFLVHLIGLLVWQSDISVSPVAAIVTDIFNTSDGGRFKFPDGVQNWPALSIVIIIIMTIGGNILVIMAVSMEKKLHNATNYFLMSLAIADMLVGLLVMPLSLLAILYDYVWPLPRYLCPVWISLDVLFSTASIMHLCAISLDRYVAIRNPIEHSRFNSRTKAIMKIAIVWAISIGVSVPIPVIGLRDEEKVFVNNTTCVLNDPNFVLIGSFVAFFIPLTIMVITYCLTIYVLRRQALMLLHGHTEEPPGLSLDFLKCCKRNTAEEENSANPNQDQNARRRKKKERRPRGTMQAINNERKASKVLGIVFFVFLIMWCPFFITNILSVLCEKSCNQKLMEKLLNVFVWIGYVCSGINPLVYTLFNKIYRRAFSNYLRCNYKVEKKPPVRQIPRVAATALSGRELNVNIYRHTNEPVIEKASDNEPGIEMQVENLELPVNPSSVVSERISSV

The target in test [2] is T2, Alpha-1A adrenergic receptor (Homo sapiens, UniProt P35348).
T2 sequence (P35348 whole entry): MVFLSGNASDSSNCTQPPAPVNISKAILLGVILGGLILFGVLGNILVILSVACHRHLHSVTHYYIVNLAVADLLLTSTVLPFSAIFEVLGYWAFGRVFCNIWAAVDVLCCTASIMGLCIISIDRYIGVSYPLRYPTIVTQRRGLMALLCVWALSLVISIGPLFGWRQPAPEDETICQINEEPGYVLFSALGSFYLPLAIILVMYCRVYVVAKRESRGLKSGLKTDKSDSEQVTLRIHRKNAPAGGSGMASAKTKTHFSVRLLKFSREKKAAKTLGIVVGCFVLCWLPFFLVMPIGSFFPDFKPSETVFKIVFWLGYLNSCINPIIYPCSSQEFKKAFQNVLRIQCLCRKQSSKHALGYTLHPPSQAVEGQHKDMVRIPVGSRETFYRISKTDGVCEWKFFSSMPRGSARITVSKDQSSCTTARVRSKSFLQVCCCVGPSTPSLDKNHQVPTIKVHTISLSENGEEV
The class given is functional, cell-based.

Test [3] has as its target T3, Adenosine receptor A1 (Homo sapiens, UniProt P30542).
T3 sequence (P30542 whole entry): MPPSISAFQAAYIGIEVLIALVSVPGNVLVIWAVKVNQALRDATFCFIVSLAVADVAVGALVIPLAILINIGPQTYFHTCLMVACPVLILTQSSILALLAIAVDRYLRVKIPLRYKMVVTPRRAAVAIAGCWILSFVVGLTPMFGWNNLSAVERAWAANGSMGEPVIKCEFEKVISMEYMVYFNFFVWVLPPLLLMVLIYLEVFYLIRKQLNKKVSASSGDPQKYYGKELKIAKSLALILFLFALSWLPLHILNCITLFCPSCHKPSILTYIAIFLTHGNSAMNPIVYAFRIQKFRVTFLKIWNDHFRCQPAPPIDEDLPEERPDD

The target of test [4] is Melanocortin receptor 3 (Homo sapiens, UniProt P41968).
Test [5] addresses T4, Adenosine receptor A3 (Homo sapiens, UniProt P0DMS8).
T4 sequence (P0DMS8 whole entry): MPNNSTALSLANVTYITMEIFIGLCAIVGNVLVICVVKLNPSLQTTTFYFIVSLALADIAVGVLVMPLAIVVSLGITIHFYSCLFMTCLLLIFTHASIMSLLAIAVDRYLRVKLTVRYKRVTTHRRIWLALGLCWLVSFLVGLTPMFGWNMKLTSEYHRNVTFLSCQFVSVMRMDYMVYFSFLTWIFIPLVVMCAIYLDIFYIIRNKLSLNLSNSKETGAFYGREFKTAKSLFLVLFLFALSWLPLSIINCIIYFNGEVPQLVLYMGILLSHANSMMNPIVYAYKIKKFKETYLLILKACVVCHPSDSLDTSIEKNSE

Test [6] concerns the target T5, Alpha-2C adrenergic receptor (Homo sapiens, UniProt P18825).
T5 sequence (P18825 whole entry): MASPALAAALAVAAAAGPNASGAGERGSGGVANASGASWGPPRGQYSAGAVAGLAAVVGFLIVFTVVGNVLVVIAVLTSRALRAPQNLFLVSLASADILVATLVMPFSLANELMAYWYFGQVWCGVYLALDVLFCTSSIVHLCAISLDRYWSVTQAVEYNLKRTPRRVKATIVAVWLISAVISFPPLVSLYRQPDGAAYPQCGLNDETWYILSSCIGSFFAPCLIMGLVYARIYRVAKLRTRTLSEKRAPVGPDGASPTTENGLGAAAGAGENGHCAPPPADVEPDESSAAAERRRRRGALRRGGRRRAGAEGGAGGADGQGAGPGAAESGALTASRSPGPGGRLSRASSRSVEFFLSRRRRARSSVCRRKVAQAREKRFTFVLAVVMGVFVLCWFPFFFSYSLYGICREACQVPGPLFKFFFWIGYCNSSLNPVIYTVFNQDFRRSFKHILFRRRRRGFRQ
The class given is functional.

Test [7] addresses T6, Alpha-2A adrenergic receptor (Homo sapiens, UniProt P08913).
T6 sequence (P08913 whole entry): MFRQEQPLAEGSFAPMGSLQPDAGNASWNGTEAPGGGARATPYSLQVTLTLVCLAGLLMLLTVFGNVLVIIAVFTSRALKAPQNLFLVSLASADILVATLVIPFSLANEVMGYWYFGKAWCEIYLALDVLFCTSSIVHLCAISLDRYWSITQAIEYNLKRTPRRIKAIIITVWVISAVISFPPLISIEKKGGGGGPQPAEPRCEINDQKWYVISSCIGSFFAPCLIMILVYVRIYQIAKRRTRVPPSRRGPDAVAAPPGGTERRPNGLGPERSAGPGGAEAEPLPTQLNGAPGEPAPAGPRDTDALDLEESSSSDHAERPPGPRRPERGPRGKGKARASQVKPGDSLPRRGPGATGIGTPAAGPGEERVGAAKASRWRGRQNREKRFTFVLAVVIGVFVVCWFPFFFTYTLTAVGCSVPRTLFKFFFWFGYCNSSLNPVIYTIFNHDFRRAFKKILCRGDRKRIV
The class given is functional, cell-based.
Note: assay procedure not described here.

Melanocortin receptor 3, sequence (P41968 whole entry): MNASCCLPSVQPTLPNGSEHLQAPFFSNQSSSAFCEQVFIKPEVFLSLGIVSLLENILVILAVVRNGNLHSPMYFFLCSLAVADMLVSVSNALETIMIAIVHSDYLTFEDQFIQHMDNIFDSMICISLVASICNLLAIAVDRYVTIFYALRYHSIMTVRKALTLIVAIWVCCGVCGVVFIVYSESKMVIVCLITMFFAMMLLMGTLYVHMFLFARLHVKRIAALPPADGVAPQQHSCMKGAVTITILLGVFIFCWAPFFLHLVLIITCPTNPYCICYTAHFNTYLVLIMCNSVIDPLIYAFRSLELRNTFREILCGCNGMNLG

Take `CCCc1nc2c(C)cc(-c3nc4ccccc4n3C)cc2n1Cc1ccc(-c2ccccc2C(=O)O)cc1`: the AC50 is > 30 µM in test [1]; 3 µM in test [2]; > 30 µM in test [3]; > 30 µM in test [4]; 17.4 µM in test [5]; 12.5 µM in test [6]. This molecule also displayed an AC50 in test [7] of 3.96 µM.

`Cc1cc(C2CCCCC2)n(O)c(=O)c1` [CICLOPIROX]: the AC50 in test [2], in test [4], in test [5] and in test [6] was > 30 µM in each case.

Turning to `O=C(O)Cc1ccccc1Nc1c(Cl)cccc1Cl` [DICLOFENAC], the AC50 in test [1] was > 10 µM; in test [2], > 30 µM; in test [3], > 30 µM; in test [4], > 30 µM; in test [5], > 3 µM; in test [6], > 10 µM. Also, the AC50 in test [7] was > 10 µM.

Regarding `O=C(O)Cc1ccccc1Oc1ccc(Cl)cc1Cl` [FENCLOFENAC], the AC50 in test [1] was > 30 µM; in test [2], > 30 µM; in test [3] it was > 30 µM; in test [4] it was > 30 µM; in test [5] it was > 30 µM; in test [6], > 10 µM. In test [7], the AC50 was > 10 µM.

In the case of `Cc1ccc(C)c(OCCCC(C)(C)C(=O)O)c1` [GEMFIBROZIL], the AC50 in test [1] was > 30 µM; in test [2], > 30 µM; in test [3], > 30 µM; in test [4], > 30 µM; in test [5], > 30 µM; in test [6] it was > 10 µM. Besides, the AC50 in test [7] was > 10 µM.

As to `CCNC(=O)/C=C(C)/C=C/C=C(C)/C=C/c1c(C)cc(OC)c(C)c1C` [MOTRETINIDE], half-maximal activity in test [5] (AC50) was put at 2.24 µM. This lies in the single-digit micromolar range.

The molecule `C=CC(=O)Nc1cccc(Oc2nc(Nc3ccc(N4CCN(C)CC4)cc3)nc3ccsc23)c1` [OLMUTINIB] yielded an AC50 in test [5] of 0.003 µM.

`COc1ccc2[nH]c([S+]([O-])Cc3ncc(C)c(OC)c3C)nc2c1` (stereo not given) [OMEPRAZOLE]: the activity in test [5] was half-maximal at 2.88 µM (AC50).

Take `CCCCC1C(=O)N(c2ccccc2)N(c2ccc(O)cc2)C1=O` (stereo not given) [OXYPHENBUTAZONE ANHYDROUS]: in test [5], the AC50 was > 30 µM.

Consider `O=C(O)CN(CCN(CC(=O)O)CC(=O)O)CCN(CC(=O)O)CC(=O)O` [PENTETIC ACID], for which the AC50 in test [5] is > 30 µM.

Regarding `Nc1cccc2c1C(=O)N(C1CCC(=O)NC1=O)C2=O` (stereo not given) [POMALIDOMIDE], the AC50 in test [5] is > 30 µM.

On to `C[Se]CC[C@H](N)C(=O)O` [SELENOMETHIONINE], for which the AC50 in test [5] was > 30 µM.

`C[N+](C)(C)CCOC(=O)CCC(=O)OCC[N+](C)(C)C` [SUXAMETHONIUM]: the AC50 in test [5] was > 30 µM.

On to `Cc1ccsc1C(=CCCN1CCC[C@@H](C(=O)O)C1)c1sccc1C` [TIAGABINE], for which, in test [5], the AC50 is > 30 µM.

Turning to `Cc1ccc(C(=O)c2ccc(CC(=O)O)n2C)cc1` [TOLMETIN], in test [5], the AC50 was > 30 µM.

For `Cc1ccccc1C(=O)Nc1ccc(C(=O)N2CCCC(O)c3cc(Cl)ccc32)c(C)c1` (stereo not given) [TOLVAPTAN], in test [5], the AC50 was found to be 11 µM.

For the molecule `C[C@]12C=CC(=O)C=C1CC[C@H]1[C@@H]3C[C@@H](O)[C@](O)(C(=O)CO)[C@@]3(C)C[C@H](O)[C@@]12F` [TRIAMCINOLONE], in test [5], the AC50 is > 30 µM.

Turning to `CC[C@]12CCCN3CCc4c(n(c5ccccc45)[C@@](O)(C(=O)OC)C1)[C@@H]32` [VINCAMINE], the AC50 in test [5] was > 30 µM.

In the case of `CCC1=C[C@@H]2CN(C1)Cc1c([nH]c3ccccc13)[C@@](C(=O)OC)(c1cc3c(cc1OC)N(C)[C@H]1[C@@](O)(C(=O)OC)[C@H](OC(C)=O)[C@]4(CC)C=CCN5CC[C@]31[C@@H]54)C2` [VINORELBINE], the concentration at half-maximal activity (AC50) in test [5] was > 30 µM.

Regarding `O=C1Cc2cc(CCN3CCN(c4nsc5ccccc45)CC3)c(Cl)cc2N1` [ZIPRASIDONE], the AC50 is 0.684 µM in test [2], > 30 µM in test [3], > 30 µM in test [4] and 8.66 µM in test [5].
